Test results taken from patent US12233047B2, “Pharmaceutical combination and use thereof” (ASCENTAGE PHARMA (SUZHOU) CO., LTD., priority 2019, dated 2025).
Residue numbers refer to the chain shown, from its start.

How the values were obtained:
FLT3 (wild type) = molecular target: T1, FLT3 (wild type) (Homo sapiens, UniProt P36888); assay: KINOMEscan kinase binding assay, FLT3 (wild type); conditions: lower % Ctrl = stronger binding
T1 construct: host or cells: T7 phage in E. coli (BL21-derived) or HEK-293
T1 sequence (P36888 27-993): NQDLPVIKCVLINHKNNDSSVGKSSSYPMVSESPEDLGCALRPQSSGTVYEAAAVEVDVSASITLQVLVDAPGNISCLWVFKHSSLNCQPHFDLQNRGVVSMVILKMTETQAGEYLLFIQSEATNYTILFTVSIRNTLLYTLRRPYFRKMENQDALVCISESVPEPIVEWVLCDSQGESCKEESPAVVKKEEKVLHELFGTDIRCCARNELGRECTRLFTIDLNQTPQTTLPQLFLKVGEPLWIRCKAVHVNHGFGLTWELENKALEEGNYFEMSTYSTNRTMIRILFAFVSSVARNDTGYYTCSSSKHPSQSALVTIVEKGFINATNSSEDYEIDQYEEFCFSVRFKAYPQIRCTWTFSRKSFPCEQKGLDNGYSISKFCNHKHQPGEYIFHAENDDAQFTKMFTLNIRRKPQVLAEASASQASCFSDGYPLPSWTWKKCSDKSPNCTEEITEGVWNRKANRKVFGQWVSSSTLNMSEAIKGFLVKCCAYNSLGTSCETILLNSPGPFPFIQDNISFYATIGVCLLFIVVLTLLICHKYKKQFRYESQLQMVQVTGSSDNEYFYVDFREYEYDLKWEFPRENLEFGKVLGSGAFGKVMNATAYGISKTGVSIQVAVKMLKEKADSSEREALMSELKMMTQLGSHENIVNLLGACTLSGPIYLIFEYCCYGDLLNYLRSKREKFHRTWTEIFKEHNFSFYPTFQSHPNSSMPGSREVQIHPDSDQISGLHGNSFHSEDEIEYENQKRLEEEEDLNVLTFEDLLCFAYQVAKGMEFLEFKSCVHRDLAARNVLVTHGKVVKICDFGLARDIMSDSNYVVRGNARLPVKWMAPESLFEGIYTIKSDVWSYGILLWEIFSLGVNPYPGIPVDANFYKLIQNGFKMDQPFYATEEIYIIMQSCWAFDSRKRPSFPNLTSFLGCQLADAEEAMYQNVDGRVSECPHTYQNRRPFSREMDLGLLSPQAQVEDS
Procedure: (§1) The kinase assay was conducted using KINOMEscan™.
(§2) Kinase-tagged T7 phage strains were grown in parallel in 24-well blocks in an E. coli host derived from the BL21 strain. E. coli were grown to log-phase and infected with T7 phage from a frozen stock (multiplicity of infection=0.4) and incubated with shaking at 32° C. until lysis (90-150 minutes). The lysates were centrifuged (6,000×g) and filtered (0.2 μm) to remove cell debris. The remaining kinases were produced in HEK-293 cells and subsequently tagged with DNA for qPCR detection. Streptavidin-coated magnetic beads were treated with biotinylated small molecule ligands for 30 minutes at room temperature to generate affinity resins for kinase assays. The liganded beads were blocked with excess biotin and washed with blocking buffer (SeaBlock (Pierce), 1% BSA, 0.05% Tween 20, 1 mM DTT) to remove unbound ligand and to reduce non-specific phage binding. Binding reactions were assembled by combining kinases, liganded affinity beads, and test compound (Compound 23) in 1× binding buffer (20% SeaBlock, 0.17×PBS, 0.05% Tween 20, 6 mM DTT). Test compound were prepared as 40× stocks in 100% DMSO and directly diluted into the assay. All reactions were performed in polypropylene 384-well plates in a final volume of 0.04 ml. […] The kinase concentration in the eluates was measured by qPCR. […]

FLT3 (D835H) = molecular target: T2, FLT3 (D835H) (Homo sapiens, UniProt P36888, D835H); assay: KINOMEscan kinase binding assay, FLT3 (D835H)
T2 construct: host or cells: T7 phage in E. coli (BL21-derived) or HEK-293
T2 sequence (P36888 27-993 D835H): T1 sequence (P36888 27-993) with D809H
Procedure: as §1, §2

With `Cc1ccc(C(=O)Nc2ccc(CN3CCN(C)CC3)c(C(F)(F)F)c2)cc1C#Cc1cnc2[nH]ncc2c1` [Compound 23, 3-(2-(1H-pyrazolo[3,4-b]pyridin-5-yl)ethynyl)-4-methyl-N-(4-((4-methylpiperazin-1-yl)methyl)-3-(trifluoromethyl)phenyl)benzamide] the “% Ctrl@10 nM” value (FLT3 (wild type); 10 nM) was 2.4 % Ctrl, the “% Ctrl@100 nM” value (FLT3 (wild type); 100 nM) was 0.75 % Ctrl and the “% Ctrl@10 nM” value (FLT3 (D835H); 10 nM) was 18 % Ctrl. For the same molecule, the “% Ctrl@100 nM” value (FLT3 (D835H); 100 nM) was 2.2 % Ctrl.
